Data published in paper PMC9266368, “Synthesis and Biological Evaluation of Small Molecules as Potential Anticancer Multitarget Agents” (International Journal of Molecular Sciences, 2022).

Key:
[1] = tested on: HT-29 (colon adenocarcinoma); assay: MTT cell viability assay, HT-29; format: cell-based; conditions: Homo sapiens, HT-29, 48 h, 2 days incubation, average ±SD of three experiments
Description: (§1) The effects of triazole derivatives 1–26 on the cell viability were determined by MTT assay, and the IC50 values were determined toward the human tumor cell lines HT-29 (colon adenocarcinoma), A-549 (lung adenocarcinoma), and MCF-7 (breast adenocarcinoma), as well as toward the non-tumor cell line HEK-293 (human embryonic kidney cells).
(§2) In 96-well plates, 3 × 10^3 (A549 and HEK-293) or 5 × 10^3 (HT-29, MCF-7) cells per well were incubated with serial dilutions of the tested compounds in a total volume of 100 μL of their growth media. The 3-(4,5-dimethylthiazol-2-yl)-2,5-diphenyltetrazolium bromide (MTT; Sigma Chemical Co.) dye reduction assay in 96-well microplates was used. After 2 days of incubation (37 °C, 5% CO2 in a humid atmosphere), 10 μL of MTT (5 mg/mL in phosphate-buffered saline, PBS) was added to each well, and the plate was incubated for a further 3 h (37 °C). After that, the supernatant was discarded and replaced by 100 µL of DMSO to dissolve formazan crystals. The absorbance was then read at 550 nm by spectro-photometry. For all concentrations of compound, cell viability was expressed as the percentage of the ratio between the mean absorbance of treated cells and the mean absorbance of untreated cells. Three independent experiments were performed, and the IC50 values (i.e., concentration half inhibiting cell proliferation) were graphically determined by using GraphPad Prism 4 software (2019).

[2] = tested on: A-549 (lung adenocarcinoma); assay: MTT cell viability assay, A-549; format: cell-based; conditions: Homo sapiens, A549, 48 h, 2 days incubation, average ±SD of three experiments
Description: as §1, §2

[3] = tested on: MCF-7 (breast adenocarcinoma); assay: MTT cell viability assay, MCF-7; format: cell-based; conditions: Homo sapiens, MCF7, 48 h, 2 days incubation, average ±SD of three experiments
Description: as §1, §2

[4] = tested on: HEK-293 (human embryonic kidney cells); assay: MTT cell viability assay, HEK-293; format: cell-based; conditions: HEK293, 48 h, 2 days incubation, non-tumor cell line, average ±SD of three experiments
Description: as §1, §2

[5] = molecular target: T1, membrane PD-L1 (mPD-L1) (Homo sapiens, UniProt Q9NZQ7); assay: Membrane PD-L1 relative quantification by flow cytometry; format: cell-based; conditions: 24 h, 100 or 10 μM (Table 7), percentage referred to DMSO control
T1 construct: endogenous in cells; host or cells: HT-29, A-549, MCF-7
Description: Based on antiproliferative activity of synthetized derivatives, we decided to study the effect of the amino derivatives 14–26 on the expression of both membrane targets PD-L1 and VEGFR-2 (mPD-L1 and mVEGFR-2). The evaluation was performed on three cancer cell lines (HT-29, A-549, and MCF-7) by flow cytometry after 24 h of treatment with the corresponding compounds. Compounds were used at a 100 or 10 μM concentration depending on their IC50 value (see Table 1 in Materials and Methods section). The presence of both targets in the membrane was relatively determined by using DMSO-treated cells as a negative control.
(§3) To study the effect of the compounds on every biological target in cancer cell lines the compounds were used at a 100 or 10 μM dose, depending on their IC50 and the treated cell line.
(§4) For the assay, 10^5 cells per well were incubated for 24 h with the corresponding dose of the tested compound in a total volume of 500 μL of their growth media.
To detect membrane PD-L1 and VEGFR-2, after the cell treatments, they were collected, fixed with 4% in PBS paraformaldehyde, and stained with FITC Mouse monoclonal Anti-Human VEGFR-2 (ab184903) and Alexa Fluor® 647 Rabbit monoclonal Anti-PD-L1 (ab215251).

[6] = molecular target: T2, total PD-L1 (tPD-L1) (Homo sapiens, UniProt Q9NZQ7); assay: Total PD-L1 relative quantification by flow cytometry; format: cell-based; conditions: for tPD-L1 relative detection, A-549 / tPD-L1 relative detection, HT-29 / tPD-L1 relative detection, MCF-7: 24 h, 100 or 10 μM (Table 7), relative to DMSO control
T2 construct: endogenous in cells; host or cells: HT-29, A-549, MCF-7
Description: (§5) The study was carried out again on HT-29, A-549, and MCF-7 cell lines by flow cytometry after 24 h of treatment with the corresponding compounds. The presence of the targets in the whole cell were relatively determined by using DMSO-treated cells as a negative control and BMS-8 as a positive one for PD-L1 (Table 3).
as §3, §4
(§6) For the detection of total PD-L1, VEGFR-2, and c-Myc, the procedure was the same as for membrane targets, but after fixation, a treatment with 0,5% in PBS TritonTM X-100 was performed. The antibodies used for PD-L1 and VEGFR-2 were the ones previously described, and for the detection of c-Myc, it was FITC Rabbit monoclonal anti-c-Myc (ab223913).

[7] = tested on: c-Myc; assay: c-Myc relative quantification by flow cytometry; format: cell-based, human; conditions: for c-Myc relative detection, A-549 / c-Myc relative detection, HT-29 / c-Myc relative detection, MCF-7: 24 h, 100 or 10 μM (Table 7), relative to DMSO control
Description: as §5, §3, §4, §6

[8] = tested on: HT-29 cells co-cultured with Jurkat T cells; assay: Co-culture HT-29 + PD-1 Jurkat T cells: living HT-29 cells; format: cell-based, human; conditions: 100 μM, 24 h; related to non-treated samples
Description: (§7) Cellular PD-1/PD-L1 blocking activity was studied in a co-culture system with PD-1 Jurkat T cells stimulated by interferon γ and PD-L1-expressing cancer cells. Thereby, we selected chloro derivatives 21–23 to study the proliferation of cancer cells co-cultured in the presence of PD-1 expressing Jurkat T cells in order to evaluate whether the observed PD-L1 inhibition is translated to the blockage of PD-1/PD-L1 system. […] Thus, tumor cells HT-29 were treated for 24 h with the selected compounds at 100 μM in the presence of Jurkat T cells and then living cells were counted by using cytometry and a Neubauer chamber.

[9] = tested on: Jurkat T cells; assay: Co-culture HT-29 + PD-1 Jurkat T cells: living Jurkat cells; format: cell-based; conditions: 100 μM, 24 h; related to non-treated samples
Description: as §7

[10] = molecular target: T3, PD-L1 (Homo sapiens, UniProt Q9NZQ7); assay: Protein thermal shift (PTS) assay; format: binding
T3 construct: purchased ab167713
Description: This assay measures the melting point (Tm) of the target protein which is a proxy of its stability that can be altered by the binding of a ligand. A change in the melting point relative to the unliganded form implies that a ligand has bound itself to the targeted protein. According to the fundamentals of this technique, an increase in Tm means that the binding of the ligand leads to a stabilization of the target protein, while a decrease in Tm is probably due to the fact that the binding between the ligand and its target leads to a destabilization of the protein. In this case, the tested compounds were able to change the PD-L1 melting temperature.
PTS assay was performed by following the instructions indicated in Protein Thermal ShiftTM Dye Kit (Applied Biosystems reference 4461146), using 2 μL of a 0.1 mg/mL of an aqueous solution of PD-L1 (reference ab167713) and 1.5 μL of a 0.1 mg/mL aqueous solution of the corresponding product. The melting curves were registered by a StepOneTM Real-Time PCR System.

[11] = molecular target: T4, membrane VEGFR-2 (mVEGFR-2) (Homo sapiens, UniProt P35968); assay: Membrane VEGFR-2 relative quantification by flow cytometry; format: cell-based; conditions: 24 h, 100 or 10 μM (Table 7), sorafenib 10 μM, percentage referred to DMSO control
T4 construct: endogenous in cells; host or cells: HT-29, A-549, MCF-7
Description: The presence of both targets in the membrane was relatively determined by using DMSO-treated cells as a negative control.
as §4

[12] = HT-29, compared to non-treated cells

T2 sequence (Q9NZQ7 19-290): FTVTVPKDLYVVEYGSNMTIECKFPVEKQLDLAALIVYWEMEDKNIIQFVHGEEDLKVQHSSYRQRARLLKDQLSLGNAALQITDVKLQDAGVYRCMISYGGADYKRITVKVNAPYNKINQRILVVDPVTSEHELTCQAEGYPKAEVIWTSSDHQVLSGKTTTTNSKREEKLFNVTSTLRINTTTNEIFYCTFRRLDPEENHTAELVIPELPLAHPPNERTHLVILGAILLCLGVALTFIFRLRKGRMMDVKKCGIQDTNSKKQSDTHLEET
T1 sequence (Q9NZQ7 19-290): as above
T4 sequence (P35968 20-1356): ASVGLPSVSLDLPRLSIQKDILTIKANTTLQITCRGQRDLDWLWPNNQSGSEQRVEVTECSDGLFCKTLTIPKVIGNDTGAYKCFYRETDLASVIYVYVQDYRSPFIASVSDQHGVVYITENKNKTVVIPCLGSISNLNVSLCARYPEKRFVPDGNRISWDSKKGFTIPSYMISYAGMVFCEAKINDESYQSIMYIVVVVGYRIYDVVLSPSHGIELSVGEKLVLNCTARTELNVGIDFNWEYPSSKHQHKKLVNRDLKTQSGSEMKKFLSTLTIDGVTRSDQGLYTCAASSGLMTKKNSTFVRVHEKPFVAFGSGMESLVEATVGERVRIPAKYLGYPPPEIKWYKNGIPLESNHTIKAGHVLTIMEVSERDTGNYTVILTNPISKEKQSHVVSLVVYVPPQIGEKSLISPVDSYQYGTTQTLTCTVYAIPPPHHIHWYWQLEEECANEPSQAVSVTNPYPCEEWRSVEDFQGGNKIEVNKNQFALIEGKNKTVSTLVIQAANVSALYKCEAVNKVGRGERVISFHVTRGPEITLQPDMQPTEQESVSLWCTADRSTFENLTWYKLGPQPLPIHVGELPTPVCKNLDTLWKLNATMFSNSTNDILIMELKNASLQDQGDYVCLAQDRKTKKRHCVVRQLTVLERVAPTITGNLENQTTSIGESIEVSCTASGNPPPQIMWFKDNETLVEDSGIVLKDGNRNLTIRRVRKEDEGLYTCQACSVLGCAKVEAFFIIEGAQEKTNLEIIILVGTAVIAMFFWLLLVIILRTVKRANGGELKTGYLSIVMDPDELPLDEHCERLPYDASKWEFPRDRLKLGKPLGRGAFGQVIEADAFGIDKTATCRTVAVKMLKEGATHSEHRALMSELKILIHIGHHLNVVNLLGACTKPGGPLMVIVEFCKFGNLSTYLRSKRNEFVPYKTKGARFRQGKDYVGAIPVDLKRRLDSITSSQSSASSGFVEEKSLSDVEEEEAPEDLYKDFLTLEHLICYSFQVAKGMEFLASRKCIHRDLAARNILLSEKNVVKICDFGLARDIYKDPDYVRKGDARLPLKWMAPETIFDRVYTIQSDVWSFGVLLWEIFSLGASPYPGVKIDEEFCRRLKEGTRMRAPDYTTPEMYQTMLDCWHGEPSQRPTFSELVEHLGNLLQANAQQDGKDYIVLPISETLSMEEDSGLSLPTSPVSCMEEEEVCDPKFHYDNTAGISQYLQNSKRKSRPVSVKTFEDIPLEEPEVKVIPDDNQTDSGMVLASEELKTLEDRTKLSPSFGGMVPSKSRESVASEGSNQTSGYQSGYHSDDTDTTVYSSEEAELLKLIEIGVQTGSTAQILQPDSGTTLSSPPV
T3 sequence (Q9NZQ7 19-290): as the sequence (Q9NZQ7 19-290) above

SMILES | IC50 [1] [µM] | IC50 [2] [µM] | IC50 [3] [µM] | mPD-L1 relative detection, A-549 [5] [%] | mPD-L1 relative detection, HT-29 [5] [%] | mPD-L1 relative detection, MCF-7 [5] [%] | tPD-L1 relative detection, A-549 [6] [%] | tPD-L1 relative detection, HT-29 ([6]; HT-29) [%] | tPD-L1 relative detection, MCF-7 [6] [%] | mVEGFR-2 relative detection, A-549 [11] [%] | mVEGFR-2 relative detection, HT-29 [11] [%] | mVEGFR-2 relative detection, MCF-7 [11] [%] | melting point [°C] | Inhibition of total PD-L1, A-549 ([6]; compared to non-treated cells) [%] | IC50 [4] [µM] | c-Myc relative detection, A-549 [7] [%] | c-Myc relative detection, HT-29 ([7]; HT-29) [%] | c-Myc relative detection, MCF-7 ([7]; MCF-7) [%] | Inhibition of c-Myc, A-549 ([7]; compared to non-treated cells) | further results
COc1cccc(Cn2cc(-c3ccc(N)cc3)nn2)c1 [Compound 19, 4-(1-(3-methoxybenzyl)-1H-1,2,3-triazol-4-yl)aniline] | > 100 | > 100 | 12 ± 5 | >100 | >100 | 96 ± 5 | >100 | 85 ± 17 | >100 | >100 | 94 ± 1 | >100 | 103 to 105 | – | > 100 | >100 | >100 | 55 ± 5 | – | –
COc1ccc(Cn2cc(-c3ccc(N)cc3)nn2)cc1 [Compound 20, 4-(1-(4-methoxybenzyl)-1H-1,2,3-triazol-4-yl)aniline] | > 100 | > 100 | 6 ± 4 | 95 ± 8 | >100 | 91 ± 9 | 54 ± 6 | 67 ± 3 | >100 | >100 | 92 ± 14 | >100 | 132 to 134 | ~50 | > 100 | 69 ± 9 | 74 ± 23 | 62 ± 7 | around 30% | Inhibition/downregulation of total PD-L1, HT-29 [6, 12]: around 35%; Inhibition of c-Myc, HT-29 [7, 12]: around 30%; Inhibition of c-Myc, MCF-7 ([7]; MCF-7): around 30%
Nc1ccc(-c2cn(Cc3ccc(Br)cc3)nn2)cc1 [Compound 26, 4-(1-(4-bromobenzyl)-1H-1,2,3-triazol-4-yl)aniline] | 14 ± 6 | 8 ± 2 | 8 ± 1 | 76 ± 4 | 94 ± 15 | 84 ± 23 | 80 ± 12 | 51 ± 2 | >100 | >100 | 85 ± 7 | >100 | 169 to 170 | – | > 100 | 82 ± 4 | >100 | 64 ± 6 | 20% | –

Continued, in another order:

IC50 [1] [µM] | IC50 [2] [µM] | IC50 [3] [µM] | mPD-L1 relative detection, A-549 [5] [%] | mPD-L1 relative detection, HT-29 [5] [%] | mPD-L1 relative detection, MCF-7 [5] [%] | tPD-L1 relative detection, A-549 [6] [%] | tPD-L1 relative detection, HT-29 ([6]; HT-29) [%] | tPD-L1 relative detection, MCF-7 [6] [%] | mVEGFR-2 relative detection, A-549 [11] [%] | mVEGFR-2 relative detection, HT-29 [11] [%] | mVEGFR-2 relative detection, MCF-7 [11] [%] | melting point [°C] | Inhibition of total PD-L1, A-549 ([6]; compared to non-treated cells) [%] | SMILES | IC50 [4] [µM] | c-Myc relative detection, A-549 [7] [%] | c-Myc relative detection, HT-29 ([7]; HT-29) [%] | c-Myc relative detection, MCF-7 ([7]; MCF-7) [%] | Inhibition of c-Myc, A-549 ([7]; compared to non-treated cells) | further results
19 ± 2 | 6 ± 1 | 20 ± 3 | 99 ± 10 | 95 ± 12 | 90 ± 8 | 66 ± 8 | 62 ± 3 | 68 ± 5 | – | – | – | – | – | Cc1c(COc2ccc(CN3CCCCC3C(=O)O)cc2Br)cccc1-c1ccccc1 (centres unmarked) [BMS-8, reference compound] | 60 ± 10 | 135 ± 15 | 99 ± 7 | 60 ± 7 | – | Relative number of living HT-29 cells in co-culture with Jurkat T [8]: 51 ± 8%; Relative number of living Jurkat cells in co-culture with HT-29 [9]: 110 ± 4%; PTS Tm ([10]; PD-L1 melting temperature, DMSO 34 °C): 38 °C; PTS ΔTm ([10]; shift of PD-L1 melting temperature vs DMSO): +4 °C
3.7 | 0.45 | 5 ± 1 | 88 ± 12 | 86 ± 11 | 91 ± 10 | 56 ± 7 | 45 ± 3 | >100 | >100 | 84 ± 8 | >100 | 133 to 134 | ~50 | Nc1ccc(-c2cn(Cc3ccccc3Br)nn2)cc1 [Compound 24, 4-(1-(2-bromobenzyl)-1H-1,2,3-triazol-4-yl)aniline] | > 100 | >100 | >100 | 57 ± 8 | – | –
